pIC50: −log10 of the molar value. The source made the active and inactive calls. The calls are words filed in the database; no cut-off is given here.
Assays:
[1] = biological target: T1, Amyloid-beta precursor protein (Homo sapiens, UniProt P05067); experiment: Inhibition of human amyloid beta (1 to 42) beta-sheet formation at 50 uM after 12 to 24 hrs by CD-spectra analysis
[2] = biological target: T1, Amyloid-beta precursor protein; experiment: Inhibition of human amyloid beta (1 to 42) fibril formation at 50 uM after 24 hrs by transmission electron microscopic analysis
[3] = biological target: T1, Amyloid-beta precursor protein; experiment: Inhibition of human amyloid beta (1 to 42) aggregates by measuring monomer concentration at 20 uM after 48 hrs by thermodynamic stability assay
[4] = biological target: T1, Amyloid-beta precursor protein; experiment: Inhibition of amyloid beta (1 to 42)-mediated neurotoxicity in human SH-SY5Y cells assessed as increase in cell viability at 20 uM after 48 hrs by MTT assay; assay type: cell-based
[5] = biological target: T1, Amyloid-beta precursor protein; experiment: Inhibition of human amyloid beta (1 to 42) aggregation after 24 hrs by thioflavin-T fluorescence assay
[6] = biological target: T1, Amyloid-beta precursor protein; experiment: Inhibition of amyloid beta (1 to 42)-mediated neurotoxicity in human SH-SY5Y cells assessed as increase in cell viability after 48 hrs by MTT assay; assay type: cell-based
[7] = biological target: T1, Amyloid-beta precursor protein; experiment: Inhibition of human amyloid beta (1 to 42) aggregation at 1 to 100 uM after 24 hrs by thioflavin-T fluorescence assay
[8] = biological target: T1, Amyloid-beta precursor protein; experiment: Inhibition of human amyloid beta (1 to 42) oligomerization assessed as decrease in trimer formation at 50 uM after 2 hrs by Western blot analysis
[9] = biological target: T1, Amyloid-beta precursor protein; experiment: Inhibition of human amyloid beta (1 to 42) oligomerization at 90 uM after 24 to 144 hrs by Dot blot analysis
[10] = biological target: T1, Amyloid-beta precursor protein; experiment: Inhibition of human amyloid beta (1 to 42) oligomerization assessed as decrease in trimer formation at 25 uM after 2 hrs by Western blot analysis

T1 sequence (P05067 whole entry): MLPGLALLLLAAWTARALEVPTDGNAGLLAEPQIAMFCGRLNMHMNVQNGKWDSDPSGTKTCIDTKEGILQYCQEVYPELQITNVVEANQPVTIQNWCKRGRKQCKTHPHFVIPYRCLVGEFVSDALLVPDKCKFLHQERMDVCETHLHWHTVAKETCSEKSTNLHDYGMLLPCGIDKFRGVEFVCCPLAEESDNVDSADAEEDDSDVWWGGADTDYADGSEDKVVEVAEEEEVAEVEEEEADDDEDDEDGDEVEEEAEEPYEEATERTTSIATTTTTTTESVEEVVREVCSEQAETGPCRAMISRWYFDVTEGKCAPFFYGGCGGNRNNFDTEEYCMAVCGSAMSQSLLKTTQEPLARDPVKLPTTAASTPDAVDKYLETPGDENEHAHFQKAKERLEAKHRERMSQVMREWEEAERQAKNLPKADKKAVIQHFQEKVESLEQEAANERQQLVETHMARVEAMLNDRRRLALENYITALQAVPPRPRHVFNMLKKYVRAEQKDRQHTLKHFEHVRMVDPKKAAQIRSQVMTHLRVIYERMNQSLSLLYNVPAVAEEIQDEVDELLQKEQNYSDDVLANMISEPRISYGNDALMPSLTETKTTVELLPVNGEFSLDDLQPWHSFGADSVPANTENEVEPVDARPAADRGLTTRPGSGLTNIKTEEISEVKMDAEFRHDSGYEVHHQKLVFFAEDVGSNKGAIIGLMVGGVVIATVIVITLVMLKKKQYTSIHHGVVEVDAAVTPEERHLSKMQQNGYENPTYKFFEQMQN

SMILES | pIC50 [5] | inhibition [7] | also measured
O=C(/C=C/c1ccc(O)c(O)c1)O[C@H]1[C@H](O)C[C@](O)(C(=O)O)C[C@H]1OC(=O)/C=C/c1ccc(O)c(O)c1 | 7.00 | Active | inhibition [1]: Active; inhibition [2]: Active; Activity [3]: 10 µM; Activity [4]: 78.9%; inhibition [6]: Dose-dependent effect
O=C(/C=C/c1ccc(O)c(O)c1)O[C@@H]1[C@H](O)C[C@@](O)(C(=O)O)C[C@H]1OC(=O)/C=C/c1ccc(O)c(O)c1 | 5.33 | Active | 
O=C(O)[C@]1(O)C[C@@H](O)[C@@H](O)[C@H](O)C1 (relative stereo) [QUINIC ACID] | < 4.00 | inactive | Activity [3]: 1.2 µM; inhibition [8]: 100%
O=C(/C=C/c1ccc(O)c(O)c1)O[C@@H]1C[C@](O)(C(=O)O)C[C@@H](O)[C@H]1O [CHLOROGENIC ACID] | 4.03 |  | inhibition [5]: Dose-dependent effect
O=C(/C=C/c1ccc(O)c(O)c1)O[C@@H]1C[C@](O)(C(=O)O)C[C@@H](OC(=O)/C=C/c2ccc(O)c(O)c2)[C@H]1O | 4.79 | Active | 
O=C(/C=C/c1ccc(O)c(O)c1)O[C@H]1[C@H](O)C[C@](OC(=O)/C=C/c2ccc(O)c(O)c2)(C(=O)O)C[C@H]1OC(=O)/C=C/c1ccc(O)c(O)c1 | 5.66 | Active | 
COC(=O)[C@]1(O)C[C@@H](OC(=O)/C=C/c2ccc(O)c(O)c2)[C@@H](OC(=O)/C=C/c2ccc(O)c(O)c2)[C@H](OC(=O)/C=C/c2ccc(O)c(O)c2)C1 | 5.52 | Active | 
O=C(/C=C/c1ccc(O)c(O)c1)O[C@@H]1C[C@](O)(C(=O)O)C[C@@H](OC(=O)/C=C/c2ccc(O)c(O)c2)[C@H]1OC(=O)/C=C/c1ccc(O)c(O)c1 | 6.52 | Active | inhibition [1]: Active; inhibition [9]: Active; inhibition [2]: Active; Activity [3]: 27 µM; inhibition [8]: 63.1%; Activity [4]: 96.1%; inhibition [6]: Dose-dependent effect; inhibition [10]: 87.6%
COC(=O)[C@]1(O)C[C@@H](O)[C@@H](O)[C@H](OC(=O)/C=C/c2ccc(O)c(O)c2)C1 [CHLOROGENIC ACID METHYL ESTER] | < 4.00 | inactive | 
O=C(O)/C=C/c1ccc(O)c(O)c1 [CAFFEIC ACID] | 4.48 |  | inhibition [5]: Dose-dependent effect
O=C(O)/C=C/c1ccccc1 [CINNAMIC ACID] | < 4.00 | inactive | 

From ChEMBL document CHEMBL2146368, “Protective effects of caffeoylquinic acids on the aggregation and neurotoxicity of the 42-residue amyloid β-protein” (Bioorg Med Chem, 2012)
